Results published in patent US20120190707A1, “SELECTIVE INHIBITORS OF AKT AND METHODS OF USING SAME” (priority 2008, published 2012).
Like-named read-outs stand apart in the source and are kept apart here.

Tests used:
[1] = tested on: NF-kB pathway; assay: TNF-α stimulated NF-kB pathway (IKK, IkB) western analysis in UACC903 cells; assay type: cell-based, human; details: 10 μM for 1 h prior to 20 ng/ml TNF-α
Description: UACC903 melanoma cells were exposed to 10 μM BI-69A11 or vehicle control for 1 h prior to treatment with 20 ng/ml TNF-α. Cells were harvested at the indicated time points and whole cell lysates were subjected to western analysis for phosphorylated IKK, total IKK, phosphorylated IkB, total IkB, and PLCγ (as loading control).
FIG. 11 describes how selected BI-69A11 analogs inhibit the NFkB pathway. UACC903 melanoma cells were exposed to vehicle control, 10 μM BI-69A11, or 10 μM analog for 1 h prior to stimulation with 20 ng/ml TNF-α as indicated. Cells were harvested at 5 min post-stimulation and whole cell lysates were subjected to western analysis for phosphorylated IKK, total IKK, phosphorylated IkB, total IkB, and […] (as loading control).
We first tested whether BI-69A11 inhibited the activation of the canonical NF-kB pathway (FIG. 10) in intact cells. […] In contrast, in cells treated with BI-69A11, both IKK and IkB phosphorylation were inhibited in response to TNF-a stimulation. Furthermore, the degradation of IkB protein was inhibited.
We next tested the ability of selected BI-69A11 analogs to inhibit the NF-kB pathway (FIG. 11). In this experiment, UACC903 cells were treated with vehicle, BI-69A11 or analog, stimulated with TNF-a, and harvested at 5 minutes post-stimulation. […]

[2] = target: Akt1 (Homo sapiens, UniProt P31749); assay: Akt1 inhibition, Z'-LYTE kit fluorescent-enzymatic assay; assay type: biochemical
Description: Here the top 4000 compounds out of 50000 docked compounds were selected using FlexX and Drugscore (BioSolvIT). The top 4000 docked structures were further evaluated and ranked according to Goldscore and Chemscore functions (CSCORE). A list of common 200 compounds was then selected among ranked top 700 compounds according to both scoring functions (FIG. 1B). […] The remaining 100 compounds were experimentally tested up to 30 μM against Akt1. The inhibitory activity was evaluated for the selected compounds by using Z'-LYTE™ kit assay provided by Invitrogen Corporation (19). […] Corning® 384-well low volume plates (20 μl) were used. The fluorescent-enzymatic assay has been performed following the protocol provided by Invitrogen Corporation, using a fluorescent plate reader (Victor2, Perkin-Elmer). […] C) Lineweaver-Burk Km and Km(app) evaluation for Akt1. Each measurement was performed in triplicate. […] The Ki and the Km(app) were calculated at fixed inhibitor concentrations, as reported in the text. All constant values were definitely evaluated by fitting the data to the Lineweaver-Burk plot; D) Akt1 inhibition assay using GSK-3 as a substrate. Comparison of compounds 1 and 2 (Table 1) with H89 at 10 μM. E) Dose response for compound 1. Akt (10 ng of recombinant enzyme) in 25 μl 1× kinase buffer (25 mM Tris, pH 7.5; 5 mM n-glycerol phosphate; 2 mM dithiothreitol; 0.1 mM Na3VO4; and 10 mM MgCl2), was mixed with 2.5 μl DMSO (1% stock) or MPA-D (100 μM in 1% DMSO). Samples were incubated on ice for 1.5 hours at which time 1 μg of GSK-3 fusion protein (Cell Signaling), which served as the substrate, was added followed by ATP (200 μM) to each reaction mixture. After the suspensions were incubated at 30° C. for 20 min, the reaction was terminated by the addition of 3×SDS sample buffer (187.5 mM Tris-HCl, pH 6.8; 6% SDS; 30% glycerol; 150 mM dithiothreitol; and 0.03% bromophenol blue). The samples were boiled for 5 min, and the proteins were separated on a 12% SDS polyacrylamide gel and subsequently transferred to a nitrocellulose membrane. Membranes were incubated with rabbit polyclonal anti-phospho-GSK-3α/β (Ser21/9) (Cell Signaling).
For these purposes, we initially determined the Km and the Vmax of the enzymatic reaction involving the peptide provided by the Z'-LYTE™ kit assay and Akt1 by varying the concentration of ATP. The above parameters appeared to be 7.9 μM and 0.0205 μmol min^−1 mg^−1, respectively. […] Because all our inhibitors affected the Km rather than the Vmax of the reaction (FIG. 2C), they can be truly considered ATP-competitive inhibitors of Akt1.

Chain of Akt1 (P31749 whole entry): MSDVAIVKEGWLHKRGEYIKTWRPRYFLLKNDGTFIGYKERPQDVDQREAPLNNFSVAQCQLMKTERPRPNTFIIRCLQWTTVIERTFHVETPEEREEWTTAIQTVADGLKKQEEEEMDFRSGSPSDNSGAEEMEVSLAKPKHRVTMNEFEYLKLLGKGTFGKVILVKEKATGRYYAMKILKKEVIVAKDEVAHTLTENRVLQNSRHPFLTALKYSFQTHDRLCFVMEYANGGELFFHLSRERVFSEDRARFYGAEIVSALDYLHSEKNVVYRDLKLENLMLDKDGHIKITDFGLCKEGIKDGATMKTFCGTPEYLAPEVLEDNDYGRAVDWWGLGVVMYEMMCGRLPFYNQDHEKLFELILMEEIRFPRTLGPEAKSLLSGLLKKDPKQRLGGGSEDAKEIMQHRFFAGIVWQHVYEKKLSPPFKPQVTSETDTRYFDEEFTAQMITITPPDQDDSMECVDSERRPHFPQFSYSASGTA

O=C(/C=C/c1nc2ccccc2[nH]1)c1c(O)nc2ccc(Cl)cc2c1-c1ccccc1 [Compound 2, (E)-3-(3-(1H-benzo[d]imidazol-2-yl)acryloyl)-6-chloro-4-phenylquinolin-2(1H)-one]
degradation of IkB protein [1]: inhibited
IKK and IkB phosphorylation in response to TNF-a stimulation ([1]; time course): inhibited
IC50 values (in words) [2]: low-micromolar range
Ki ([2]; 10 μM compound 1, 20 μM compound 2, 50 μM compound 3, increasing ATP, Lineweaver-Burk): 3.9 µM
IC50 ([2]; AKT1, Example 2 (Forino et al., 2005), read-out: IC50 values): 2.3 µM
IC50 ([2]; FIG. 2 legend, read-out: IC50 value): 4.5 µM
type of inhibition of Akt1 ([2]; affected Km rather than Vmax): ATP competitive inhibition
